PubChem BioAssay (NCI)
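Exposure lasted 48 hours, with cells grown in 96-well plates and compounds tested at five concentrations. TGI: concentration producing complete growth inhibition.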

Assays:
Assay in all cases: NCI-60 cell line screen, 48 h
A549 NSCLC = test system: A549 NSCLC
MOLT-4 leukemia = test system: MOLT-4 leukemia
SN12C renal = test system: SN12C renal
HCC-2998 colon = test system: HCC-2998 colon
SW-620 colon = test system: SW-620 colon
BT-549 breast = test system: BT-549 breast
SK-MEL-2 melanoma = test system: SK-MEL-2 melanoma
PC-3 prostate = test system: PC-3 prostate
NCI-H23 lung = test system: NCI-H23 lung
MCF7 breast = test system: MCF7 breast

| Compound | TGI (A549 NSCLC) | TGI (MOLT-4 leukemia) | TGI (SN12C renal) | TGI (HCC-2998 colon) | TGI (SW-620 colon) | TGI (BT-549 breast) | TGI (SK-MEL-2 melanoma) | TGI (PC-3 prostate) | TGI (NCI-H23 lung) | TGI (MCF7 breast) |
| --- | --- | --- | --- | --- | --- | --- | --- | --- | --- | --- |
| CC1CC[C@@]2(OC1)OC1C[C@H]3[C@@H]4CC=C5CC(OC6OC(CO)C(OC7OC(CO)C(O)C(OC8OCC(O)C(O)C8O)C7OC7OC(CO)C(OC8OC(C)C(OC9OC(C)C(O)C(O)C9O)C(O)C8O)C(O)C7O)C(O)C6O)CCC5(C)[C@H]4CCC3(C)C1[C@@H]2C (stereo not given in full) | 14.5 µM | 24.7 µM | 17 µM | 14.1 µM | 22.9 µM | 16.4 µM | 13.5 µM | 11.7 µM | 16.7 µM | 26.8 µM |
| O=c1[nH]c2nc3ccccc3c(=O)n2/c1=C/c1ccc(Cl)cc1 | > 100 µM | > 100 µM | > 100 µM | 65.3 µM | 59.7 µM | 46.2 µM | > 100 µM | > 100 µM | > 100 µM | > 100 µM |
| CCOC(=O)c1ccc(-n2[nH]nc(C(N)=O)c2=O)cc1 | > 100 µM | > 100 µM | > 100 µM | > 100 µM | > 100 µM | > 100 µM | > 100 µM | > 100 µM | > 100 µM | > 100 µM |
